{"source": "patent US8815800B2", "about": "“Moisturizing composition comprising an aminopeptide mixture” (Conopco, Inc., priority 2011, dated 2014)", "key": {"Ex-vivo porcine skin": {"system": "Ex-vivo porcine skin", "test": "Skin moisturization: Corneometer hydration of treated ex-vivo porcine skin", "description": "Skin moisturization was assessed in terms of hydration, measured using a Corneometer (Courage+Khazaka, Germany, model CM 825, consistent with the Sorption Desorption Test described in Bioengineering of the Skin:Water and the Stratum Corneum, by G. Borroni et al., Ed by P. Elsner et al., CBC Press, Chapter 18, 1995). Instrument readings typically vary from 5 to 120 units, with small numbers (˜6) typical for nails, higher numbers typical for dry skin (˜10-20), medium numbers typical for hydrated skin (˜40) and large numbers typical for skin immediately after application of water-based humectants (above 100).\nEx-vivo porcine skin (area 1.5 cm×1.5 cm) was treated with 0.1 ml of the compositions identified in Table 1 as well as a 10% glycerol solution and deionized water as the control. Readings were taken before treatments as a baseline and at least 5 measurements were made at the same position at the time intervals shown in the table.\nThe relative hydration numbers were calculated as 100%*(Ct-C0)/C0, where C0 is the reading before the treatment, and Ct is the reading taken at the time t after treatment."}, "[1]": {"test": "Glass transition temperature by differential scanning calorimetry", "format": "physicochemical", "description": "Glass transition temperatures were measured using differential scanning calorimetry (DSC Q1000, TA Instruments) at a heating rate of 10 K/min from −80 to +40° C. Glass transition temperatures were determined using TA instrument software (TA Advantage) from the middle of the heat capacity curve. The compositions comprising aminopeptide mixtures consistent with this invention were assessed against glycerol and other compositions with amino acids. Water concentration means the water concentration of the composition at the time the glass transition temperature was obtained. Water was evaporated from contained compositions by storing the same at room temperature at a relative humidity of about 33%."}, "stratum corneum": {"system": "stratum corneum", "test": "Hydration of stratum corneum: water uptake in sorption-desorption cycle (Dynamic Water Sorption Analyzer)", "details": "0.12 mL applied", "description": "The hydration of the stratum corneum was estimated from hysteresis observed during the sorption-desorption cycle. Disks of stratum corneum (6 mm in diameter) were treated with 0.06 mL aminopeptide mixture, glycerol or water at both sides and dried. The samples were then placed in a Dynamic Water Sorption Analyzer and with controlled humidity. When the humidity was increased in small steps (Delta RH=10%) water uptake was measured after 3 hours equilibration for each step. Water uptake is defined as a mass of water per the dry mass of stratum corneum. Table 3 depicts the values of water uptake for sorption and desorption for stratum corneum treated with aminopeptide mixture consistent with this invention (Sample 3), glycerol and stratum corneum treated with deionized water."}}, "data": [{"smiles": "OCC(O)CO", "note": "[Glycerol (10%), glycerol]", "values": [{"measurement": "Relative Hydration", "setting": "Ex-vivo porcine skin; 10 minutes after treatment with 0.1 ml", "value": 23, "unit": "%"}, {"measurement": "Relative Hydration", "setting": "Ex-vivo porcine skin; 30 minutes after treatment with 0.1 ml", "value": 11, "unit": "%"}, {"measurement": "Relative Hydration", "setting": "Ex-vivo porcine skin; 60 minutes after treatment with 0.1 ml", "value": 10, "unit": "%"}, {"measurement": "change in hydration with respect to the initial hydration number", "setting": "Ex-vivo porcine skin; after 10, 30, and 60 minutes of application to model skin, in words", "value": "lower"}, {"measurement": "Glass transition temperature", "setting": "[1]; water concentration 0 % in composition at reading", "value": "−83", "unit": "°C"}, {"measurement": "Glass transition temperature", "setting": "[1]; water concentration 40 % in composition at reading", "value": "−108", "unit": "°C"}, {"measurement": "Water uptake, desorption", "setting": "stratum corneum; relative humidity 20.8 %", "value": 87.3, "unit": "mg/g"}, {"measurement": "Water uptake, sorption", "setting": "stratum corneum; relative humidity 20.8 %", "value": 122.22, "unit": "mg/g"}, {"measurement": "water uptake difference (desorption-sorption)", "setting": "stratum corneum; relative humidity 20.8 %", "value": 34.92, "unit": "mg/g"}, {"measurement": "Water uptake, desorption", "setting": "stratum corneum; relative humidity 31 %", "value": 135.34, "unit": "mg/g"}, {"measurement": "Water uptake, sorption", "setting": "stratum corneum; relative humidity 31 %", "value": 161.38, "unit": "mg/g"}, {"measurement": "water uptake difference (desorption-sorption)", "setting": "stratum corneum; relative humidity 31 %", "value": -26.04, "unit": "mg/g"}, {"measurement": "Water uptake, desorption", "setting": "stratum corneum; relative humidity 41 %", "value": 192.06, "unit": "mg/g"}, {"measurement": "Water uptake, sorption", "setting": "stratum corneum; relative humidity 41 %", "value": 209.84, "unit": "mg/g"}, {"measurement": "water uptake difference (desorption-sorption)", "setting": "stratum corneum; relative humidity 41 %", "value": -17.78, "unit": "mg/g"}, {"measurement": "Water uptake, desorption", "setting": "stratum corneum; relative humidity 51 %", "value": 261.90, "unit": "mg/g"}, {"measurement": "Water uptake, sorption", "setting": "stratum corneum; relative humidity 51 %", "value": 275.13, "unit": "mg/g"}, {"measurement": "water uptake difference (desorption-sorption)", "setting": "stratum corneum; relative humidity 51 %", "value": -13.23, "unit": "mg/g"}, {"measurement": "Water uptake, desorption", "setting": "stratum corneum; relative humidity 60.2 %", "value": 366.67, "unit": "mg/g"}, {"measurement": "Water uptake, sorption", "setting": "stratum corneum; relative humidity 60.2 %", "value": 366.67, "unit": "mg/g"}, {"measurement": "water uptake difference (desorption-sorption)", "setting": "stratum corneum; relative humidity 60.2 %", "value": 0, "unit": "mg/g"}, {"measurement": "Water uptake, desorption", "setting": "stratum corneum; relative humidity 70.35 %", "value": 524.34, "unit": "mg/g"}, {"measurement": "Water uptake, sorption", "setting": "stratum corneum; relative humidity 70.35 %", "value": 524.34, "unit": "mg/g"}, {"measurement": "water uptake difference (desorption-sorption)", "setting": "stratum corneum; relative humidity 70.35 %", "value": 0, "unit": "mg/g"}]}]}
